According to patent US7803803B2, “Tetrahydrofuro[3,2-B] pyrrol-3-ones as cathepsin K inhibitors” (Amura Therapeutics Limited, priority 2007, dated 2010):

What was measured:
[1] = system: human osteoclasts; experiment: Human osteoclast resorption assay; format: cell-based; settings: for inhibition at 1 µM: Homo sapiens, Osteoclast, 48 h, 1 □ M, read-out: Cell-based % Inh. @ 1 □ M Human; for IC50: read-out: Cell-based Human IC50
Procedure: Bone resorption was studied using a model where human osteoclast precursor cells were cultured on bovine bone slices for 9 days and allowed to differentiate into bone-resorbing osteoclasts. The formed mature osteoclasts were then allowed to resorb bone. The assay was performed by Pharmatest Services Ltd, Itäinen Pitkakatu 4C, Turku, Finland. After the culture period, bone collagen degradation products were quantified from the culture medium as an index of bone resorption. Inhibitor compounds were added into the cell cultures after the differentiation period and their effects on the resorbing activity of mature osteoclasts were determined. The studies included a baseline group without added compounds and a positive control group where a potent cathepsin K inhibitor E-64 was added.
Human peripheral blood monocytes were suspended to culture medium and allowed to attach to bovine bone slices. The bone slices were transferred into 96-well tissue culture plates containing culture medium with appropriate amounts of important growth factors favouring osteoclast differentiation, including M-CSF, RANK-ligand and TGF-[…]. The cells were incubated in a CO2 incubator in humidified atmosphere of 95% air and 5% carbon dioxide at 37° C. At day 7 when osteoclast differentiation was complete, the culture medium was replaced with culture medium containing conditions favouring osteoclast activity. The cell culture was continued for an additional 2 days, during which the formed mature osteoclasts were allowed to resorb bone in the presence of vehicle, control inhibitor (E64) or test compounds. At the end of the culture, bone collagen degradation products released into the culture medium were determined using a commercially available ELISA method (CrossLaps® for culture, Nordic Bioscience, Herlev, Denmark) as an index of bone resorption (see Bagger, Y. Z. et al, J. Bone. Miner. Res. 14 (suppl. 1), S370).

[2] = target: T1, cathepsin K (Homo sapiens, UniProt P43235); experiment: In vitro cathepsin Ki inhibition measurements; format: biochemical; parameters: purchased B. Turk, Josef Stefan Institute, Ljubljana, Slovenia; settings: human recombinant cathepsin K; read-out: In vitro Ki (nM) vs Cath K
T1 sequence (P43235 115-329): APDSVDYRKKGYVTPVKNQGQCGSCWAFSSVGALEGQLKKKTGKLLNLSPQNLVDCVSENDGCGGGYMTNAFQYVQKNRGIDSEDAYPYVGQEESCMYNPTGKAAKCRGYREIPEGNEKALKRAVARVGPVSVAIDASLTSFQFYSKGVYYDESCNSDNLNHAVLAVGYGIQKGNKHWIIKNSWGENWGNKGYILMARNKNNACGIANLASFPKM
Procedure: Stock solutions of substrate or inhibitor were made up to 10 mM in 100% dimethylsulfoxide (DMSO) (Rathburns, Glasgow, U.K.) and diluted as appropriately required. In all cases the DMSO concentration in the assays was maintained at less than 1% (vol./vol.). The equilibrium inhibition constants (Ki^SS) for each compound were measured under steady-state conditions monitoring enzyme activity as a function of inhibitor concentration. The values were calculated on the assumption of pure competitive behaviour (Cornish-Bowden, A. Fundamentals of enzyme kinetics Portland Press; 1995, 93-128). Human recombinant cathepsin K (0.25 nM final; B. Turk, Josef, Stefan Institute, Ljubljana, Slovenia), was routinely assayed in 100 mM sodium acetate; pH 5.5 containing 1 mM EDTA, 10 mM L-cysteine and 1.8 μM Z-Leu-Arg-AMC ([S]═KM).
The apparent inhibition constant (Ki) for each compound was determined on the basis that inhibition was reversible and occurred by a pure-competitive mechanism. The Ki values were calculated, from the dependence of enzyme activity as a function of inhibitor concentration, by direct regression analysis (Prism v 3.02) using Equation 2 (Cornish-Bowden, A., 1995).
In situations where the apparent dissociation constant (Ki^app) approached the enzyme concentrations, the Ki^app values were calculated using a quadratic solution in the form described by Equation 3 (Morrison, J. F. Trends Biochem. Sci., 7, 102-105, 1982; Morrison, J. F. Biochim. Biophys. Acta, 185, 269-286, 1969; Stone, S. R. and Hofsteenge, J. Biochemistry, 25, 4622-4628, 1986).
Curves were fitted by non-linear regression analysis (Prism) using a fixed value for the enzyme concentration. Equation 4 was used to account for the substrate kinetics, where ‘Ki’ is the inhibition constant, ‘[So]’ is the initial substrate concentration and ‘KM^app’ is the apparent macroscopic binding (Michaelis) constant for the substrate (Morrison, 1982).

[3] = LogD determinations; format: physicochemical; settings: Ion-count method; for logD at 1 h: 1-octanol/phosphate buffered saline, pH 7.4, pH 7.4
Procedure: LogD(PBS) determinations were performed in 96 well microtitre plates using a miniaturised “shake-flask” method. […] The plates were then capped and mixed vigorously for 1 hour on a microtitre plate shaker, after which they were left to stand, allowing the PBS and octanol phases to separate. The PBS layer was analysed by reverse phase HPLC with mass spectrometric detection, using single ion monitoring of the [M+H]^+ species.
Where AUCstd and AUCpbs are the peak areas from the standard and test ion chromatograms respectively.

[4] = Plasma incubations (human plasma stability); format: in vitro ADME; settings: 37° C. Also: tested at 25 µM.
Procedure: Aliquots were removed at 2 and 60 minutes and quenched with an equal volume of cold acetonitrile. After mixing vigorously, the precipitated protein matter was removed by filtration (Multiscreen Solvinert filter plates, Millipore, Bedford, Mass., USA) and the filtrate analysed by reverse phase HPLC with mass spectrometric detection, using single ion monitoring of the [M+H]^+ species. Metabolic turnover was determined by comparison of peak areas from the ion chromatograms of the parent compound at 2 and 60 minutes and expressed as percent remaining at 1 hour.

Ki [2] | logD at 1 h [3] | LogD pH 7.4 [3] | Human Plasma Stability % rem. @ 1 h [4] | IC50 [1] | Structure (SMILES) | inhibition at 1 µM [1]
6.3 nM | > 0.8 | 1.23 | 99% | – | COCCN1CCN(c2ccc(C(=O)N[C@@H](CC(C)C)C(=O)N3C[C@H](OC)[C@H]4OCC(=O)[C@H]43)cc2)CC1 [Example 27, N—((S)-1-((3aS,6S,6aS)-6-methoxy-3-oxodihydro-2H-furo[3,2-b]pyrrol-4(5H,6H,6aH)-yl)-4-methyl-1-oxopentan-2-yl)-4-(4-(2-methoxyethyl)piperazin-1-yl)benzamide] | 63 to 88%
8.2 nM | > 0.8 | 1.12 | 99% | – | CCCN1CCC(c2ccc(C(=O)N[C@@H](CC(C)(C)C)C(=O)N3C[C@@H](OC)[C@H]4OCC(=O)[C@H]43)cc2)CC1 [Example 38, N—((S)-1-((3aS,6R,6aS)-6-methoxy-3-oxodihydro-2H-furo[3,2-b]pyrrol-4(5H,6H,6aH)-yl)-4,4-dimethyl-1-oxopentan-2-yl)-4-(1-propylpiperidin-4-yl)benzamide] | 63 to 88%
6.9 nM | – | 0.56 | 92% | – | COCCN1CCN(c2ccc(C(=O)N[C@@H](CC(C)C)C(=O)N3C[C@H](O)[C@H]4OCC(=O)[C@H]43)cc2)CC1 [Example 25, N—((S)-1-((3aS,6S,6aS)-6-hydroxy-3-oxodihydro-2H-furo[3,2-b]pyrrol-4(5H,6H,6aH)-yl)-4-methyl-1-oxopentan-2-yl)-4-(4-(2-methoxyethyl)piperazin-1-yl)benzamide] | 25 to 54%
11.2 nM | – | 0.55 | 88% | – | COCCN1CCN(c2ccc(C(=O)N[C@@H](CC(C)C)C(=O)N3C[C@H](N)[C@H]4OCC(=O)[C@H]43)cc2)CC1 [Example 23, N—((S)-1-((3aS,6S,6aR)-6-amino-3-oxodihydro-2H-furo[3,2-b]pyrrol-4(5H,6H,6aH)-yl)-4-methyl-1-oxopentan-2-yl)-4-(4-(2-methoxyethyl)piperazin-1-yl)benzamide] | 25 to 54%
8.1 nM | – | 0.23 | 95% | – | COCCN1CCN(c2ccc(C(=O)N[C@@H](CC(C)C)C(=O)N3C[C@@H](O)[C@H]4OCC(=O)[C@H]43)cc2)CC1 [Example 26, N—((S)-1-((3aS,6R,6aS)-6-hydroxy-3-oxodihydro-2H-furo[3,2-b]pyrrol-4(5H,6H,6aH)-yl)-4-methyl-1-oxopentan-2-yl)-4-(4-(2-methoxyethyl)piperazin-1-yl)benzamide] | 25 to 54%
14.4 nM | – | 0.76 | 88% | – | COCCN1CCN(c2ccc(C(=O)N[C@@H](CC(C)C)C(=O)N3C[C@@H](OC)[C@H]4OCC(=O)[C@H]43)cc2)CC1 [Example 28, N—((S)-1-((3aS,6R,6aS)-6-methoxy-3-oxodihydro-2H-furo[3,2-b]pyrrol-4(5H,6H,6aH)-yl)-4-methyl-1-oxopentan-2-yl)-4-(4-(2-methoxyethyl)piperazin-1-yl)benzamide] | 25 to 54%

The remaining lines, values behind:

Structure (SMILES) | Ki [2] | logD at 1 h [3] | LogD pH 7.4 [3] | Human Plasma Stability % rem. @ 1 h [4] | IC50 [1] | inhibition at 1 µM [1]
CCN1CCN(c2ccc(C(=O)N[C@H](C(=O)N3C[C@@H](OC)[C@H]4OCC(=O)[C@H]43)C3CCCC3)cc2)CC1 | 3.4 nM | 0.95 | – | 90.7% | 231 nM | –
CO[C@H]1CN(C(=O)[C@@H](NC(=O)c2ccc(N3CCN(C)CC3)cc2)C2CCCC2)[C@@H]2C(=O)CO[C@H]12 | 1.8 nM | 1.36 | – | 93.6% | 52 nM | –
CCCN1CCN(c2ccc(C(=O)N[C@@H](CC(C)C)C(=O)N3C[C@@H](OC)[C@H]4OCC(=O)[C@H]43)cc2)CC1 [Example 15, N—((S)-1-((3aS,6R,6aS)-6-methoxy-3-oxodihydro-2H-furo[3,2-b]pyrrol-4(5H,6H,6aH)-yl)-4-methyl-1-oxopentan-2-yl)-4-(4-propylpiperazin-1-yl)benzamide] | 16.3 nM | > 0.8 | 1.34 | 92% | – | 63 to 88%
CO[C@H]1CN(C(=O)[C@H](CC(C)C)NC(=O)c2ccc(N3CCN(C)CC3)cc2)[C@@H]2C(=O)CO[C@H]12 [Example 1, N—((S)-1-((3aS,6S,6aS)-6-methoxy-3-oxodihydro-2H-furo[3,2-b]pyrrol-4(5H,6H,6aH)-yl)-4-methyl-1-oxopentan-2-yl)-4-(4-methylpiperazin-1-yl)benzamide] | 5.6 nM | > 0.8 | 1.18 | 96% | – | 63 to 88%
CCCN1CCN(c2ccc(C(=O)N[C@@H](CC(C)(C)C)C(=O)N3C[C@@H](OC)[C@H]4OCC(=O)[C@H]43)cc2)CC1 [Example 16, N—((S)-1-((3aS,6R,6aS)-6-methoxy-3-oxodihydro-2H-furo[3,2-b]pyrrol-4(5H,6H,6aH)-yl)-4,4-dimethyl-1-oxopentan-2-yl)-4-(4-propylpiperazin-1-yl)benzamide] | 3.7 nM | – | 1.69 | 97% | – | 63 to 88%
CO[C@@H]1CN(C(=O)[C@@H](NC(=O)c2ccc(N3CCN(C)CC3)cc2)C2CCCC2)[C@@H]2C(=O)CO[C@@H]21 | 4.9 nM | 0.75 | – | 91.8% | 637 nM | –
CO[C@@H]1CN(C(=O)[C@H](CC(C)(C)C)NC(=O)c2ccc(N3CCN(C)CC3)cc2)[C@@H]2C(=O)CO[C@@H]21 [Example 4, N—((S)-1-((3aS,6R,6aS)-6-methoxy-3-oxodihydro-2H-furo[3,2-b]pyrrol-4(5H,6H,6aH)-yl)-4,4-dimethyl-1-oxopentan-2-yl)-4-(4-methylpiperazin-1-yl)benzamide] | 5.6 nM | > 0.8 | 0.84 | 89% | – | 63 to 88%
CO[C@H]1CN(C(=O)[C@H](CC(C)(C)C)NC(=O)c2ccc(N3CCN(C)CC3)cc2)[C@@H]2C(=O)CO[C@H]12 [Example 2, N—((S)-1-((3aS,6S,6aS)-6-methoxy-3-oxodihydro-2H-furo[3,2-b]pyrrol-4(5H,6H,6aH)-yl)-4,4-dimethyl-1-oxopentan-2-yl)-4-(4-methylpiperazin-1-yl)benzamide] | 6.3 nM | > 0.8 | 1.00 | 93% | – | 63 to 88%
CCN1CCN(c2ccc(C(=O)N[C@@H](CC(C)C)C(=O)N3C[C@H](OC)[C@H]4OCC(=O)[C@H]43)cc2)CC1 [Example 5, 4-(4-ethylpiperazin-1-yl)-N—((S)-1-((3aS,6S,6aS)-6-methoxy-3-oxodihydro-2H-furo[3,2-b]pyrrol-4(5H,6H,6aH)-yl)-4-methyl-1-oxopentan-2-yl)benzamide] | 5.8 nM | > 0.8 | 1.05 | 96% | – | 63 to 88%
